Experiments:
[1] = molecular target: T1, human NOX4 (Homo sapiens, UniProt Q9NPH5); experiment: Lucigenin chemiluminescence assay, drosophila membranes expressing hNOX4; type: biochemical; details: average of three repeats
T1 construct: made in house; host or cells: transgenic Drosophila (Da-GAL4 driven UAS-hNOX4, dDuox RNAi background); membranes from homogenized flies
T1 sequence (Q9NPH5 1-578): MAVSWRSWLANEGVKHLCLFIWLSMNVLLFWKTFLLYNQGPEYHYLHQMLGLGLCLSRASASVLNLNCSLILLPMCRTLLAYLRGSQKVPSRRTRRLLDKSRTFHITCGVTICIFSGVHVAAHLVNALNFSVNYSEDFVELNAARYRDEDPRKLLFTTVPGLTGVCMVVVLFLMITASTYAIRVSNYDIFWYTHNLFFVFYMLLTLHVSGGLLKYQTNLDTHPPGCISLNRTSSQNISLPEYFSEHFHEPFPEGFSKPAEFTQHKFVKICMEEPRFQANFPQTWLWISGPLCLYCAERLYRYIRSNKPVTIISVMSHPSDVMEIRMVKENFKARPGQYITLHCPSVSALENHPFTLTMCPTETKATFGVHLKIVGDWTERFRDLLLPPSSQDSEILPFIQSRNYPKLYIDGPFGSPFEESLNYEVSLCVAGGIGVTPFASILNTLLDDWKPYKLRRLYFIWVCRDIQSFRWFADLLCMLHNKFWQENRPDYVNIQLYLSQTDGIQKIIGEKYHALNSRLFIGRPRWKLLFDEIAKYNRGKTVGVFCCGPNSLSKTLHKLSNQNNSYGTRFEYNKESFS
Description: Human NOX isozymes were provided from transgenic flies expressing human NOX isozymes from the daughterless (Da)-GAL4 promoter. The genotype of each fly line is shown below. • human NOX2:UAS-hNOX2/UAS-dDuox-RNAi; Da-GAL4/+ • human NOX4:UAS-hNOX4/UAS-dDuox-RNAi; Da-GAL4/+
Transgenic flies were homogenized in PBS containing protease inhibitors (aprotinin, leupeptin) to obtain drosophila membranes of each NOX isozyme. The membranes were incubated with the compounds (100 μM, 10 μM, 1 μM, 0.1 μM, 0.01 μM, 0.001 μM, and 0 μM) for 10 minutes in a shaker. Then, to the membranes, a mixture of 500 μM NADPH (R-nicotinamide adenine dinucleotide 2′-phosphate reduced tetrasodium salt hydrate; Sigma-Aldrich) and 400 μM lucigenin (N,N′-dimethyl-9,9-biacridinium dinitrate; Sigma-Aldrich) in 1× HEPES (4-(2-hydroxyethyl)-1-piperazineethanesulfonic acid) buffer was added. Lucigenin chemiluminescence was detected at 1-minute intervals for 10 minutes using a multimode microplate reader (SpectraMax iD3, Molecular Devices). IC50 values were calculated with Graph-Pad Prism 5 (GraphPad Software).
The lucigenin chemiluminescence assay was performed with drosophila membranes expressing hNOX1, hNOX2, and hNOX4. The assay was repeated three times and the IC50 values were averaged.

[2] = Metabolic stability in human liver microsomes; type: in vitro ADME; details: human liver microsomes 0.5 mg/ml, 1 μM, 30 minutes, 37° C., NADPH
Description: The stability of a drug may be predicted by using liver microsomes to determine the extent to which the drug is metabolized in the liver. […] Thus, a metabolic stability verification experiment was performed on the oxadiazole derivatives according to The present disclosure.
Specifically, sample treatment human liver microsomes (0.5 mg/ml), 0.1 M phosphate buffer (pH 7.4), and test compound at a concentration of 1 μM were added, and the mixture was pre-incubated at 37° C. for 5 minutes, followed by addition of NADPH Regeneration system solution and incubation at 37° C. for 30 minutes. An acetonitrile solution containing an internal standard (chlorpropamide) was then added to terminate the reaction, followed by centrifugation for 5 minutes (14,000 rpm, 4° C.). Then, the supernatant was injected into the LC-MS/MS system to analyze the substrate drug to evaluate the metabolic stability of the two compounds.
The HPLC column was an Acquity UPLC BEH Amide column (2.1×100 mm, 1.7 μm particle size; Waters, Ireland). The mobile phases were distilled water containing 0.1% formic acid (A) and acetonitrile containing 0.1% formic acid (B). Data analysis was performed using Analyst software (version 1.6.3).

[3] = tested on: U87; experiment: Mouse model xenografted with brain tumor glioblastoma U87; type: in vivo, mice
Description: To confirm the therapeutic effect on brain tumor glioblastoma, U87 (5×10^4), a human brain tumor cell line, was xenografted into the brains of mice to establish a brain tumor model, followed by oral administration of the drugs.
Different experimental groups were evaluated for each compound.
First, with respect to the compound of Example 1, the experimental groups were divided into Vehicle (n=3) and the compound of Example 1, 50 mg/kg (n=3) and the administered with the drug orally 5 times a week 20 days after U87 xenografting.
With respect to the compound of Example 2, the experimental groups were divided into Vehicle (n=9), TMZ 5 mg/kg (Temozolomide, n=10, 2 times per week), the compound of Example 2, 50 mg/kg (n=8, 5 times per week), and combination (TMZ+the compound of Example 2, n=7), and began receiving the drug 20 days after U87 xenografting.

[4] = Example 1 study: 50 mg/kg orally 5 times a week

| SMILES | IC50 [1] | Human (% ) remaining, microsomal stability [2] | brain tumor growth (MRI) [3, 4] | extension of median survival compared to the vehicle group [3, 4] | median survival ([3]; Example 1 study: 50 mg/kg orally 5 times a week from 20 days after U87 xenografting, vehicle 31 days) | tumor growth rate (MRI) ([3]; Example 2 study: Example 2 50 mg/kg 5 times per week, TMZ 5 mg/kg 2 times per week) | median survival time ([3]; Example 2 study: Example 2 50 mg/kg 5 times per week, TMZ 5 mg/kg 2 times per week, from 20 days after xenografting, vehicle 42 days) |
| --- | --- | --- | --- | --- | --- | --- | --- |
| O=C(Nc1nnc(-c2cccc(Cl)c2)o1)c1cc(F)cc(C(F)(F)F)c1 [Example 1, N-(5-(3-chlorophenyl)-1,3,4-oxadiazol-2-yl)-3-fluoro-5-(trifluoromethyl)benzamide] | 160 nM | 81.7% | inhibition of brain tumor growth | 17 days | 48 days |  |  |
| O=C(Nc1nnc(-c2ccccc2)o1)c1ccc(F)c(C(F)(F)F)c1 [Example 2, 4-fluoro-N-(5-phenyl-1,3,4-oxadiazol-2-yl)-3-(trifluoromethyl)benzamide] | 440 nM | >100% |  |  |  | inhibited the tumor growth rate | 46 days |

— patent publication US20250051293A1, “NOVEL OXADIAZOLE DERIVATIVE AND USE THEREOF” (CELROS BIOTECH, priority 2021, published 2025)
